Data set [1] deals with Carbonic anhydrase 6 (Homo sapiens) (UniProt P23280). Briefly: Activation of human recombinant carbonic anhydrase 6 by stopped flow CO2 hydration method.
Data set [2] deals with Carbonic anhydrase 1 (Homo sapiens) (UniProt P00915). The data set is described as follows: Activation of human recombinant carbonic anhydrase 1 by stopped flow CO2 hydration method.
The target in data set [3] is Carbonic anhydrase 2 (Homo sapiens) (UniProt P00918). Briefly: Activation of human recombinant carbonic anhydrase 2 by stopped flow CO2 hydration method.
In data set [4] the target is Carbonic anhydrase 3 (Homo sapiens) (UniProt P07451). Briefly: Activation of human recombinant carbonic anhydrase 3 by stopped flow CO2 hydration method.
Sequence of Carbonic anhydrase 3 (Homo sapiens) (P07451 whole entry): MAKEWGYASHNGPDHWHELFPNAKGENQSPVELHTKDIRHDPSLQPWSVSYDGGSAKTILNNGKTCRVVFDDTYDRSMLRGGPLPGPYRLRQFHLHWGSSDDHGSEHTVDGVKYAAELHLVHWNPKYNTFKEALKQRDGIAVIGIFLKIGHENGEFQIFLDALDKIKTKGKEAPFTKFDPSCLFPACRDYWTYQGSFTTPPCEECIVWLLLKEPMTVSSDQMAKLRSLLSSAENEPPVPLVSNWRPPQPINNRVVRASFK
Data set [5] concerns the target Carbonic anhydrase 4 (Homo sapiens) (UniProt P22748). The data set is described as follows: Activation of human recombinant carbonic anhydrase 4 by stopped flow CO2 hydration method.
The target in data set [6] is Carbonic anhydrase 5A, mitochondrial (Homo sapiens) (UniProt P35218). The data set is described as follows: Activation of human recombinant carbonic anhydrase 5A by stopped flow CO2 hydration method.
Sequence of Carbonic anhydrase 5A, mitochondrial (Homo sapiens) (P35218 whole entry): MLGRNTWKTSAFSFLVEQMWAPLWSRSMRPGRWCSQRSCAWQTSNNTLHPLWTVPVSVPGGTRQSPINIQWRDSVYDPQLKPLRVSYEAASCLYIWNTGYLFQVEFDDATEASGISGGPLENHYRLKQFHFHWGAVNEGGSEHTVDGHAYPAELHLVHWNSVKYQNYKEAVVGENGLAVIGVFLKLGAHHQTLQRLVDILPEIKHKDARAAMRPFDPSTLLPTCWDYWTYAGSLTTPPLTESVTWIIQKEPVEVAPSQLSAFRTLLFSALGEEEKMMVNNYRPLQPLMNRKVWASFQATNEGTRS
For data set [7], the target named is Carbonic anhydrase 5B, mitochondrial (Homo sapiens) (UniProt Q9Y2D0). The data set is described as follows: Activation of human recombinant carbonic anhydrase 5B by stopped flow CO2 hydration method.
Sequence of Carbonic anhydrase 5B, mitochondrial (Homo sapiens) (Q9Y2D0 whole entry): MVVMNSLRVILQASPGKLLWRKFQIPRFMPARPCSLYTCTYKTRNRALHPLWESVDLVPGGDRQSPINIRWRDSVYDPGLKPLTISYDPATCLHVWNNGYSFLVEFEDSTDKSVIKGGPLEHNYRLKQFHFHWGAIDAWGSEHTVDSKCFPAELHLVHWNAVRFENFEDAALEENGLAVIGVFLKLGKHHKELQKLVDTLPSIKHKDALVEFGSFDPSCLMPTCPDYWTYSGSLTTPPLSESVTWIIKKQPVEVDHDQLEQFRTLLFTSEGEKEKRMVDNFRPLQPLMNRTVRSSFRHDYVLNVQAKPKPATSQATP
In data set [8] the target is Carbonic anhydrase 7 (Homo sapiens) (UniProt P43166). The data set is described as follows: Activation of human recombinant carbonic anhydrase 7 by stopped flow CO2 hydration method.
Sequence of Carbonic anhydrase 7 (Homo sapiens) (P43166 whole entry, the tested form may be a part): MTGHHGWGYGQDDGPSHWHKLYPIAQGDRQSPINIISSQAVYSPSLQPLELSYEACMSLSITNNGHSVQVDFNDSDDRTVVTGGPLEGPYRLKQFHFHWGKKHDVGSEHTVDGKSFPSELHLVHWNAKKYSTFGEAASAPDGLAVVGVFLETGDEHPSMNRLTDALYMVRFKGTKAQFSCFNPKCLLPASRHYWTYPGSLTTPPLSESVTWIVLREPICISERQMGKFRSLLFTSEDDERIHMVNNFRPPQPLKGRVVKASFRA
The target in data set [9] is Carbonic anhydrase 9 (Homo sapiens) (UniProt Q16790). The data set is described as follows: Activation of human recombinant carbonic anhydrase 9 catalytic domain by stopped flow CO2 hydration method.
For data set [10], the target named is Carbonic anhydrase 12 (Homo sapiens) (UniProt O43570). Briefly: Activation of human recombinant carbonic anhydrase 12 catalytic domain by stopped flow CO2 hydration method.
Sequence of Carbonic anhydrase 12 (Homo sapiens) (O43570 whole entry, the tested form may be a part): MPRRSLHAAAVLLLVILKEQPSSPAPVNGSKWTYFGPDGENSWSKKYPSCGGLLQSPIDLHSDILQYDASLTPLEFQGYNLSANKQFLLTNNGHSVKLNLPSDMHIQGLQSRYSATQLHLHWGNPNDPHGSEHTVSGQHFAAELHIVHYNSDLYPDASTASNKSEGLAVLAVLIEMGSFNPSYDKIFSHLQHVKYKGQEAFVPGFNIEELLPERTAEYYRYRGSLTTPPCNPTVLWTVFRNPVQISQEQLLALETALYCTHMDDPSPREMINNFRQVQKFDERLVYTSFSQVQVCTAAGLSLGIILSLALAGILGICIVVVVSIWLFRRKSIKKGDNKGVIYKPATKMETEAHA
Data set [11] addresses Carbonic anhydrase 13 (Mus musculus) (UniProt Q9D6N1). Briefly: Activation of mouse recombinant carbonic anhydrase 13 by stopped flow CO2 hydration method.
Data set [12] deals with Carbonic anhydrase 14 (Homo sapiens) (UniProt Q9ULX7). The data set is described as follows: Activation of human recombinant carbonic anhydrase 14 by stopped flow CO2 hydration method.
Sequence of Carbonic anhydrase 14 (Homo sapiens) (Q9ULX7 whole entry): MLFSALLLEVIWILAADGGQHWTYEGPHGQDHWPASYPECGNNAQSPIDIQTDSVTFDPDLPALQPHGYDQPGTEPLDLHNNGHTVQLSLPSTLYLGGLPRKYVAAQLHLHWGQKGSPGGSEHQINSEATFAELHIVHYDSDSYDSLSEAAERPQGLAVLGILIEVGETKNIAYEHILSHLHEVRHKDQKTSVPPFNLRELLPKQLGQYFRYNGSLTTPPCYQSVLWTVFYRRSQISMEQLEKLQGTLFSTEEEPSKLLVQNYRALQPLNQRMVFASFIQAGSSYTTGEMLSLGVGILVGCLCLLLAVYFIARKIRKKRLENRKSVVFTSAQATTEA
The nature of data set [13]: Half life in po dosed human plasma. The data set is classed as ADME, organism-based.
The test system of data set [14] is Rattus norvegicus. The data set is described as follows: Activation of carbonic anhydrase in Sprague-Dawley rat red blood cells at 1 mg/kg, po after 1 hr by colorimetry relative to control. The data set is classed as functional.
The subject of data set [15] is Rattus norvegicus. The data set is described as follows: Activation of carbonic anhydrase in Sprague-Dawley rat red blood cells at 1 mg/kg, po after 3 hrs by colorimetry relative to control. In kind it is functional.
In data set [16] the test system is Rattus norvegicus. Briefly: Activation of carbonic anhydrase in Sprague-Dawley rat red blood cells at 1 mg/kg, po after 5 hrs by colorimetry relative to control. In kind it is functional.

Usually half-life stands for how long it takes for the measured level to halve. Higher therefore signals slow loss.

Sequence of Carbonic anhydrase 6 (Homo sapiens) (P23280 whole entry): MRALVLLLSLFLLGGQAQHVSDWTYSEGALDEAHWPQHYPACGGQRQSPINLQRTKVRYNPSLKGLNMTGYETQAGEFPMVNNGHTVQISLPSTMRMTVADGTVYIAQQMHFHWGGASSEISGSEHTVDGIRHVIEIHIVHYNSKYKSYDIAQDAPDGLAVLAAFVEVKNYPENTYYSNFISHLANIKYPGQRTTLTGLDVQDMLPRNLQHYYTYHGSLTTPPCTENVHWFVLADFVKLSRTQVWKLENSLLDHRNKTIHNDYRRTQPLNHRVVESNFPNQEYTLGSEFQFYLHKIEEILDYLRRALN
Sequence of Carbonic anhydrase 4 (Homo sapiens) (P22748 whole entry): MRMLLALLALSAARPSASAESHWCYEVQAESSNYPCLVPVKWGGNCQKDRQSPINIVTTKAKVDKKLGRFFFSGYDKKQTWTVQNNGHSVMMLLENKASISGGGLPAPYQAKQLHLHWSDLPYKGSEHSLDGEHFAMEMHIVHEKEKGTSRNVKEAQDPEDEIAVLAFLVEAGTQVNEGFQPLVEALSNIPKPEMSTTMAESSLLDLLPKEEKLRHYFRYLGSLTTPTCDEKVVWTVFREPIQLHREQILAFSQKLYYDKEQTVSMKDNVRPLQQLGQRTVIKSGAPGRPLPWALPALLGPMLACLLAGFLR
Sequence of Carbonic anhydrase 13 (Mus musculus) (Q9D6N1 whole entry, looked up): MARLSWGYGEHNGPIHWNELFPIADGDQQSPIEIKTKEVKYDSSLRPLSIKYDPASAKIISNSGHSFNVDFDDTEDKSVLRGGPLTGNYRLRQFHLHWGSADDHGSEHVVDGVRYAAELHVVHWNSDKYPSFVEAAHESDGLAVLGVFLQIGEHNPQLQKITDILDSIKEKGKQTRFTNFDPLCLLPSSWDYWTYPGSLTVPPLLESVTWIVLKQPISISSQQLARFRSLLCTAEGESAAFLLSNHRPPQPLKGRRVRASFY
Sequence of Carbonic anhydrase 1 (Homo sapiens) (P00915 2-261 limits assumed): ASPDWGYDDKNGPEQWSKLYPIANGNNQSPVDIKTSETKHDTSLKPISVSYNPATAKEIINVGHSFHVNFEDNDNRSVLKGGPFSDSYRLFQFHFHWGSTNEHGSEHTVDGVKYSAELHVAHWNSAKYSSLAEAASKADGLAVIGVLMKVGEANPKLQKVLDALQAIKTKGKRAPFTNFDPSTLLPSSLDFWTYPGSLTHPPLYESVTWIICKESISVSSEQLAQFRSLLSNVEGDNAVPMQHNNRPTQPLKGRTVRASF

Take `NCCN1CCNCC1`: in data set [1], the KA came out at 9.54 µM.
As for `CCCc1nn(C)c2c(=O)[nH]c(-c3cc(S(=O)(=O)N4CCN(C)CC4)ccc3OCC)nc12.O=C(O)CC(O)(CC(=O)O)C(=O)O` [SILDENAFIL CITRATE], the KA in [2] was found to be 1.08 µM; in data set [3], 31.3 µM; in data set [4] it was 13.4 µM; in data set [5] it was 15.2 µM; in [6] it was 16.8 µM; in [7], 6.54 µM. Besides, the KA is 2.37 µM in data set [1]; 72.9 µM in data set [8]; 34 µM in [9]; 73 µM in [10]; 27.5 µM in data set [11]; 32.4 µM in [12]. Further, in [13], the half-life is 4 h. The Activity in data set [14] was 84.47%; in data set [15] it was 59.6%; in data set [16] it was 79.19%.
In the case of `NCCc1c[nH]cn1`, the KA in data set [1] was found to be 6.5 µM.

The record behind these values is ChEMBL document CHEMBL1153513, “Sildenafil is a strong activator of mammalian carbonic anhydrase isoforms I-XIV” (Bioorg Med Chem, 2009).
